The text below walks through data of patent US8669206B2, “Composition and method for controlling arthropod pests” (Sumitomo Chemical Company, Limited, priority 2009, dated 2014).

Common to all, as to type: in vivo
Assay [1] concerns Pseudaletia separata. Briefly: Test Example 2: control of Pseudaletia separata larvae on rice seedlings, treatment at the foot of the seedlings. As to conditions: single compound, 5 mL/cup, larvae released after 2 days, counted after 3 days. As to the method:
(§1) Control rate=100×(1−[(Ts/30)/(Cs/30)]) “Equation A” Ts and Cs represent the number of surviving larvae in a treated group and that in a non-treated group, respectively. Provided that, when the control rate is less than 0 (Ts>Cs), it is indicated by 0.
The compound I was dissolved in water to prepare an aqueous solution having a prescribed concentration. Also, the compound (2) was dissolved in a mixed solution (44:1) of acetone and Tween 20, followed by dilution with water to prepare a chemical solution. These solutions were appropriately mixed to prepare a test mixed chemical solution having a prescribed concentration of the compound I and the compound (2).
(§2) A 90 mL plastic cup was filled with cultivation soil and 15 rice seeds were sown.
Two weeks after seedlings emerged, the foot of rice seedlings were treated with the test mixed chemical solution (5 mL/plastic cup). After 2 days, 30 of first-instar larvae of Pseudaletia separata were released per plastic cup. After 3 days, the number of surviving larvae was counted and the control rate was calculated using the equation A in the same manner as in Test Example 1.
For comparison, tests were conducted in the same manner using a test aqueous solution having a prescribed concentration of the compound I, prepared by diluting an aqueous solution of the compound I with water, and a test chemical solution having a prescribed concentration of the compound (2), prepared by dissolving the compound (2) in a mixed solution (1:9) of acetone and Tween 20, followed by dilution with water.

Assay [2] relates to Pseudaletia separata. As to the kind of experiment: Test Example 1: control of Pseudaletia separata larvae on rice seedlings, treatment at the foot of the seedlings. As to conditions: single compound, 5 mL/cup, larvae released after 2 days, counted after 3 days. As to the method:
The compound I was dissolved in water to prepare an aqueous solution having a prescribed concentration. Also, the compound (1) (Coragen (registered trademark), product of DuPont) was diluted with water to prepare a chemical solution of the compound. These solutions were appropriately mixed to prepare a test mixed chemical solution having a prescribed concentration of the compound I and the compound (1).
as §2
Two weeks after seedlings emerged, the foot of rice seedlings were treated with the test mixed chemical solution (5 mL/plastic cup). After 2 days, 30 of first-instar larvae of Pseudaletia separata were released per plastic cup. After 3 days, the number of surviving larvae was counted and the control rate was calculated using the equation A.
For comparison, tests were conducted in the same manner using a test aqueous solution having a prescribed concentration of the compound I, prepared by diluting an aqueous solution of the compound I with water, and a test aqueous solution having a prescribed concentration of the compound (1), prepared by diluting an aqueous solution of the compound (1) with water.
as §1

Assay [3] deals with Pseudaletia separata. As to the kind of experiment: Test Example 3: control of Pseudaletia separata larvae on rice seedlings treated with chemical solution and air dried. As to conditions: single compound, 20 mL/cup, larvae released after air drying, counted after 3 days. On the procedure:
as §1
The compound I was dissolved in water to prepare an aqueous solution having a prescribed concentration. Also, the compound (3) was dissolved in a mixed solution (44:1) of acetone and Tween 20, followed by dilution with water to prepare a chemical solution. These solutions were appropriately mixed to prepare a test mixed chemical solution having a prescribed concentration of the compound I and the compound (3).
A 90 mL plastic cup, was filled with cultivation soil and 15 rice seeds were sown.
Two weeks after seedlings emerged, the rice seedlings were treated with the test mixed chemical solution (20 mL/plastic cup). After air dying, 30 of first-instar larvae of Pseudaletia separata were released per plastic cup. After 3 days, the number of surviving larvae was counted and the control rate was calculated using the equation A in the same manner as in Test Example 1 and Test Example 2.
For comparison, tests were conducted in the same manner using a test aqueous solution having a prescribed concentration of the compound I, prepared by diluting an aqueous solution of the compound I with water, and a test chemical solution having a prescribed concentration of the compound (3), prepared by dissolving the compound (3) in a mixed solution (1:9) of acetone and Tween 20, followed by dilution with water.

Consider `CNC(=O)c1cc(C#N)cc(C)c1NC(=O)c1cc(Br)nn1-c1ncccc1Cl` [Compound (2), cyantraniliprole, reference compound], for which the “Control rate (%)” value in the assay on Pseudaletia separata [1] (1.0 ppm) stood at 59%.
On to `CNC(=O)c1cc(Cl)cc(C)c1NC(=O)c1cc(Br)nn1-c1ncccc1Cl` [Compound (1), chlorantraniliprole, reference compound], for which the “Control rate (%)” value came out at 78% in the assay with Pseudaletia separata [2] (1.0 ppm) and 87% in the assay on Pseudaletia separata [2] (3.0 ppm).
Take `CC(NC(=O)c1cc(Cl)cc(Br)c1NC(=O)c1cc(Br)nn1-c1ncccc1Cl)C1CC1` (stereo not drawn) [Compound (3), N-[2-bromo-4-chloro-6-[[α-methyl-(cyclopropylmethyl)amino]carbonyl]-phenyl]-3-bromo-1-(3-chloro-2-pyridinyl)-1H-pyrazole-5-carboxamide]: in the assay on Pseudaletia separata [3] (0.3 ppm), the “Control rate (%)” value is 58%.
With `O=C(O)CCC(=O)NCCc1ccccc1` [Compound I, 4-oxo-4-[(2-phenylethyl)amino]-butyric acid], the “Control rate (%)” value in the assay on Pseudaletia separata [2] (10 ppm), with Pseudaletia separata [2] (30 ppm), in the assay with Pseudaletia separata [2] (100 ppm), in the assay on Pseudaletia separata [1] (30 ppm), in the assay on Pseudaletia separata [1] (100 ppm) and in the assay with Pseudaletia separata [3] (10 ppm) was 0% throughout. The “Control rate (%)” value in the assay with Pseudaletia separata [3] (30 ppm) and in the assay with Pseudaletia separata [3] (100 ppm) was 0% in each case.
